Test results as given in patent US9751869B2, “LXR modulators” (BRISTOL-MYERS SQUIBB COMPANY, priority 2013, dated 2017).

Target: T1, LXRβ (Homo sapiens, UniProt P55055)
T1 construct: Co-transfection expression plasmids, comprising full-length LXRα (pCMX-h LXRα or LXRβ (pCMX-hLXRβ)); expressed in transfected cells; host or cells: CV-1 African green monkey kidney cells, transient transfection with pCMX-hLXRβ
T1 sequence (P55055 1-460): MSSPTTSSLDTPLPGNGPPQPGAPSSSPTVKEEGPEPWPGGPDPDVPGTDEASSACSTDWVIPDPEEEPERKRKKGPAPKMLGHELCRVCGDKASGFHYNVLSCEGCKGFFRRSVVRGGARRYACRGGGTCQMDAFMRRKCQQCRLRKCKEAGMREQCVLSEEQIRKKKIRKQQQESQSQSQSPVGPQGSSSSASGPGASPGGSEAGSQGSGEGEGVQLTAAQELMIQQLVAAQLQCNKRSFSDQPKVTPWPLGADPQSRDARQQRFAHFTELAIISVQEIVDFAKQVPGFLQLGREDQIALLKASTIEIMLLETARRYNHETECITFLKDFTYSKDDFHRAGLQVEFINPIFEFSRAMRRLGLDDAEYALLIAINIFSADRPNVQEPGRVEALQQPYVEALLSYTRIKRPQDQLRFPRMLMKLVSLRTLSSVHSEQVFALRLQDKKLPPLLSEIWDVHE
T1 sequence (P19793 1-462 partner): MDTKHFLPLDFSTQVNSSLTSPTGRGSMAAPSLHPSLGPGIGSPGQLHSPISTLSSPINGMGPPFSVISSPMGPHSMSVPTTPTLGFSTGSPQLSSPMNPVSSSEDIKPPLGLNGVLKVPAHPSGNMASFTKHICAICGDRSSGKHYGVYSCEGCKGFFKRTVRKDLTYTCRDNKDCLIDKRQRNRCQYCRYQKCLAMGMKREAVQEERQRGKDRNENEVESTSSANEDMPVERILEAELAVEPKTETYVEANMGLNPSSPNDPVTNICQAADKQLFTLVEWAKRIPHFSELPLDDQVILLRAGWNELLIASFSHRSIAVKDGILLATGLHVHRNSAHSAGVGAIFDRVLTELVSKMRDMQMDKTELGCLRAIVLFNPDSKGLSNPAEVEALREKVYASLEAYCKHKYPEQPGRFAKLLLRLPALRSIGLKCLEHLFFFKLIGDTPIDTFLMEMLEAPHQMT
Assay: LXR/LXRE co-transfection assay (luciferase reporter) in CV-1 cells, LXRβ
Type: cell-based
Conditions: for EC50: CV-1 cells transfected with pCMX-hLXRβ and LXREx1-Tk-Luciferase, 20 hours incubation, read-out: LXRbeta agonism EC50; for Emax: read-out: LXRbeta % EFFICACY
Outline: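 Luciferase read-out after 20 h compound treatment at 37 °C of CV-1 cells carrying transfected hLXRβ plus one-copy LXRE reporter, endogenous RXR partnering. Sigmoidal fit of 10-point half-log curves (4 wells each) gave EC50; % efficacy versus maximal response of the propionamide reference agonist.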

[1] = CV-1 cells, relative to maximum response of high control N-(3-((4-fluorophenyl)-(naphthalene-2-sulfonyl)amino)propyl)-2,2-dimethylpropionamide

| Structure (SMILES) | EC50 [µM] | Emax [1] [%] | LXRbeta % EFFICACY [1] [%] |
| --- | --- | --- | --- |
| Cn1nc(C(=O)NC(C)(C)C)cc1-c1ccc(-c2cccc(S(C)(=O)=O)c2)cc1-n1nncc1-c1ccc(OC(F)(F)F)cc1 [Example 40, N-(1,1-dimethylethyl)-1-methyl-5-[3′-(methylsulfonyl)-3-(5-{4-[(trifluoromethyl)oxy]phenyl}-1H-1,2,3-triazol-1-yl)biphenyl-4-yl]-1H-pyrazole-3-carboxamide] | 0.695 | 76 | – |
| Cc1nc(-c2ccc3c(c2)OC(F)(F)O3)c(-c2cc(-c3cc(F)cc(S(C)(=O)=O)c3)ccc2-c2cc(C(F)(F)C(N)=O)nn2C)o1 [Example 45, 2-(5-(3-(4-(2,2-difluorobenzo[d][1,3]dioxol-5-yl)-2-methyloxazol-5-yl)-3′-fluoro-5′-(methylsulfonyl)biphenyl-4-yl)-1-methyl-1H-pyrazol-3-yl)-2,2-difluoroacetamide] | 0.297 | 45 | – |
| Cn1nc(C(F)(F)C(N)=O)cc1-c1ccc(-c2cc(F)c(CO)c(S(C)(=O)=O)c2)cc1-c1oc(C2CC2)nc1-c1ccc2c(c1)OC(F)(F)O2 [Example 46, 2-(5-(3-(2-cyclopropyl-4-(2,2-difluorobenzo[d][1,3]dioxol-5-yl)oxazol-5-yl)-3′-fluoro-4′-(hydroxymethyl)-5′-(methylsulfonyl)biphenyl-4-yl)-1-methyl-1H-pyrazol-3-yl)-2,2-difluoroacetamide] | 0.025 | 45 | – |
| Cc1nc(-c2ccc3c(c2)OC(F)(F)O3)c(-c2cc(-c3cc(F)c(CO)c(S(C)(=O)=O)c3)ccc2-c2cc(C(F)(F)C#N)nn2C)o1 [Example 47, 2-(5-(3-(4-(2,2-difluorobenzo[d][1,3]dioxol-5-yl)-2-methyloxazol-5-yl)-3′-fluoro-4′-(hydroxymethyl)-5′-(methylsulfonyl)biphenyl-4-yl)-1-methyl-1H-pyrazol-3-yl)-2,2-difluoroacetonitrile] | 0.663 | 72 | – |
| Cc1nc(-c2ccc(OC(F)(F)F)cc2)c(-c2cc(-c3cccc(S(C)(=O)=O)c3)ccc2-c2cc(C(F)(F)C(C)(C)O)nn2C)o1 [Example 48, 1,1-difluoro-2-methyl-1-(1-methyl-5-(3-(2-methyl-4-(4-(trifluoromethoxy)phenyl)oxazol-5-yl)-3′-(methylsulfonyl)biphenyl-4-yl)-1H-pyrazol-3-yl)propan-2-ol] | 0.046 | 27 | – |
| Cc1nc(-c2ccc3c(c2)OC(F)(F)O3)c(-c2cc(-c3cccc(S(C)(=O)=O)c3)ccc2-c2cc(C(F)(F)CO)nn2C)o1 [Example 49, 2-(5-(3-(4-(2,2-difluorobenzo[d][1,3]dioxol-5-yl)-2-methyloxazol-5-yl)-3′-(methylsulfonyl)biphenyl-4-yl)-1-methyl-1H-pyrazol-3-yl)-2,2-difluoroethanol] | 0.086 | – | 69 |
| CNC(=O)C(F)(F)c1cc(-c2ccc(-c3cc(F)c(CO)c(S(C)(=O)=O)c3)cc2-c2oc(C)nc2-c2ccc3c(c2)OC(F)(F)O3)n(C)n1 [Example 50, 2-(5-(3-(4-(2,2-difluorobenzo[d][1,3]dioxol-5-yl)-2-methyloxazol-5-yl)-3′-fluoro-4′-(hydroxymethyl)-5′-(methylsulfonyl)biphenyl-4-yl)-1-methyl-1H-pyrazol-3-yl)-2,2-difluoro-N-methylacetamide] | 0.122 | 61 | – |
| Cc1nc(-c2ccc3c(c2)OC(F)(F)O3)c(-c2cc(-c3cc(F)c(CO)c(S(C)(=O)=O)c3)ccc2-c2cc(C(F)(F)c3nnco3)nn2C)o1 [Example 51, (4′-(3-(difluoro(1,3,4-oxadiazol-2-yl)methyl)-1-methyl-1H-pyrazol-5-yl)-3′-(4-(2,2-difluorobenzo[d][1,3]dioxol-5-yl)-2-methyloxazol-5-yl)-3-fluoro-5-(methylsulfonyl)biphenyl-4-yl)methanol] | 0.007 | 73 | – |
| Cc1nc(-c2ccc3c(c2)OC(F)(F)O3)c(-c2cc(-c3cc(F)c(CO)c(S(C)(=O)=O)c3)ccc2-c2cc(C(F)(F)c3nnc[nH]3)nn2C)o1 [Example 52, (4′-(3-(difluoro(4H-1,2,4-triazol-3-yl)methyl)-1-methyl-1H-pyrazol-5-yl)-3′-(4-(2,2-difluorobenzo[d][1,3]dioxol-5-yl)-2-methyloxazol-5-yl)-3-fluoro-5-(methylsulfonyl)biphenyl-4-yl)methanol] | 2.52 | 30 | – |
| Cc1nc(-c2ccc(OC(F)(F)F)cc2)c(-c2cc(-c3cccc(S(C)(=O)=O)c3)ccc2-c2cc(C(F)(F)F)nn2C)o1 [Example 53, 2-methyl-5-(4-(1-methyl-3-(trifluoromethyl)-1H-pyrazol-5-yl)-3′-(methylsulfonyl)biphenyl-3-yl)-4-(4-(trifluoromethoxy)phenyl)Oxazole] | 0.046 | 94 | – |
| Cc1nc(-c2ccc3c(c2)OC(F)(F)O3)c(-c2cc(-c3cccc(S(C)(=O)=O)c3)ccc2-c2cc(C(C)(C)O)nn2C)o1 [Example 54, 2-(5-(3-(4-(2,2-difluorobenzo[d][1,3]dioxol-5-yl)-2-methyloxazol-5-yl)-3′-(methylsulfonyl)biphenyl-4-yl)-1-methyl-1H-pyrazol-3-yl)propan-2-ol] | 0.297 | 53 | – |
| Cc1nc(-c2ccc3c(c2)OC(F)(F)O3)c(-c2cc(-c3cc(F)c(CO)c(S(C)(=O)=O)c3)ccc2-c2cc(C(=O)NC(C)(C)C#N)nn2C)o1 [Example 55, N-(2-cyanopropan-2-yl)-5-(3-(4-(2,2-difluorobenzo[d][1,3]dioxol-5-yl)-2-methyloxazol-5-yl)-3′-fluoro-4′-(hydroxymethyl)-5′-(methylsulfonyl)biphenyl-4-yl)-1-methyl-1H-pyrazole-3-carboxamide] | 0.761 | 24 | – |
| Cc1nc(-c2ccc3c(c2)OC(F)(F)O3)c(-c2cc(-c3cc(F)c(CO)c(S(C)(=O)=O)c3)ccc2-c2cc(C(N)=O)nn2C)o1 [Example 56, 5-(3-(4-(2,2-difluorobenzo[d][1,3]dioxol-5-yl)-2-methyloxazol-5-yl)-3′-fluoro-4′-(hydroxymethyl)-5′-(methylsulfonyl)biphenyl-4-yl)-1-methyl-1H-pyrazole-3-carboxamide] | 1.1 | 35 | – |
| Cc1nc(-c2ccc3c(c2)OC(F)(F)O3)c(-c2cc(-c3cc(F)c(CO)c(S(C)(=O)=O)c3)ccc2-c2cc(-c3cnco3)nn2C)o1 [Example 57, (3′-(4-(2,2-difluorobenzo[d][1,3]dioxol-5-yl)-2-methyloxazol-5-yl)-3-fluoro-4′-(1-methyl-3-(oxazol-5-yl)-1H-pyrazol-5-yl)-5-(methylsulfonyl)-[1,1′-biphenyl]-4-yl)methanol] | 0.158 | 18 | – |
| Cc1nc(-c2ccc3c(c2)OC(F)(F)O3)c(-c2cc(-c3cc(F)c(CO)c(S(C)(=O)=O)c3)ccc2-c2cc(CC#N)nn2C)o1 [Example 58, 2-(5-(3-(4-(2,2-difluorobenzo[d][1,3]dioxol-5-yl)-2-methyloxazol-5-yl)-3′-fluoro-4′-(hydroxymethyl)-5′-(methylsulfonyl)-[1,1′-biphenyl]-4-yl)-1-methyl-1H-pyrazol-3-yl)acetonitrile] | 0.018 | 94 | – |
| Cc1nc(-c2ccc3c(c2)OC(F)(F)O3)c(-c2cc(-c3cc(F)c(CO)c(S(C)(=O)=O)c3)ccc2-c2cc([C@H](C)C#N)nn2C)o1 [Example 59, (S)-2-(5-(3-(4-(2,2-difluorobenzo[d][1,3]dioxol-5-yl)-2-methyloxazol-5-yl)-3′-fluoro-4′-(hydroxymethyl)-5′-(methylsulfonyl)-[1,1′-biphenyl]-4-yl)-1-methyl-1H-pyrazol-3-yl)propanenitrile] | 0.006 | 76 | – |
| Cc1nc(-c2ccc3c(c2)OC(F)(F)O3)c(-c2cc(-c3cc(F)c(CO)c(S(C)(=O)=O)c3)ccc2-c2cc(C3(C#N)CC3)nn2C)o1 [Example 60, 1-(5-(3-(4-(2,2-difluorobenzo[d][1,3]dioxol-5-yl)-2-methyloxazol-5-yl)-3′-fluoro-4′-(hydroxymethyl)-5′-(methylsulfonyl)-[1,1′-biphenyl]-4-yl)-1-methyl-1H-pyrazol-3-yl)cyclopropanecarbonitrile] | 0.007 | 85 | – |
